These results are taken from paper PMC9919139, “Sustainable Synthesis, Antiproliferative and Acetylcholinesterase Inhibition of 1,4- and 1,2-Naphthoquinone Derivatives” (Molecules, 2023).

Values joined by “and” are separate entries in the source; they are usually repeats but may differ in a detail not shown here. Identical values can stand only once. Like-named read-outs stand apart in the source and are kept apart here.

Series [1] in a line: MTT cytotoxicity assay against HepG2 cell line. In kind it is cell-based, human. The note with it: human, HepG2 cells, HepG2, 24 h incubation, mean ± SD, read-out: EC50 (cytotoxicity, concentration leading to the death of 50% of the cells). Here is the method: (§1) A hepatocellular carcinoma cell line HepG2, recognized for studying the metabolism of anticancer drugs, was used. The viability of HepG2 cell line culture after 24 h incubation with the compounds using the MTT (3-[4,5-dimethylthiazol-2-yl]-2,5-diphenyl tetrazolium bromide) assay was evaluated, and doxorubicin (Doxo) was used as a positive control.
(§2) HepG2 human hepatocyte carcinoma cell line was purchased from European Collection of Authenticated Cell Cultures (ECACC). HepG2 cells (ECACCC# 85011430) were cultured in Dulbecco’s Modified Eagle´s Medium (DMEM) supplemented with 10% fetal bovine serum, antibiotic-antimycotic (100 U/mL penicillin-streptomycin and 0.25 μg amphotericin B) and 2 mM L-glutamine at 37 °C in an atmosphere containing 5% CO2. The 3-(4,5-dimethylthiazol-2-yl)-2,5-diphenyltetrazolium bromide (MTT) method, described in Gaspar et al., [50] was used for assaying cell viability. Briefly, the cells were grown in the supplemented medium in 96-well microplates in an incubator with 5% CO2 at 37 °C, until reaching 100% confluence. After growth, the medium was replaced by the compounds’ solutions at different concentrations. The compounds were solubilized in supplemented medium containing 0.5% DMSO final concentration. Cells treated only with medium containing 0.5% DMSO served as a negative control. After 24 h incubation, the compound’s solutions were replaced by 100 µL of 0.5 mg/mL MTT solution in DMEM culture medium and incubated at 37 °C, 5% CO2 for 2–4 h. The formed formazan crystals were dissolved in 200 µL of methanol and the absorbance at 595 nm was registered against 630 nm (reference wavelength). For each concentration of the compounds, the percentage of growth inhibition/cytotoxicity was evaluated considering 100% of viability for the absorbance of the negative control. Dose-response curves for each compound were plotted using the Graph Pa Prim 4.0 software and the effective concentration leading to the death of 50% of the cells (EC50) was calculated. All experiments were replicated at least six times.
In general terms: Tetrazolium assays rely on reduction of a dye to a coloured formazan, in cell work by metabolically active cells.

Series [2] relates to HepG2 human hepatocyte carcinoma cell line. As to the kind of experiment: MTT cytotoxicity assay against HepG2 cell line. In kind it is cell-based. To be noted: HepG2, 24 h incubation, mean ± SD, read-out: EC50 (cytotoxicity, concentration leading to the death of 50% of the cells). Here is the method:
as §1, §2

The target of series [3] is acetylcholinesterase (AChE) (Homo sapiens, UniProt P22303). As to the kind of experiment: AChE inhibition assay (Ellman's colorimetric method). Format: biochemical. Here is the method: The inhibition of acetylcholinesterase (AChE) enzymatic activity was measured using the Ellman’s colorimetric method with some alterations. Briefly, 325 μL of 50 mM Tris–HCl buffer (pH 8), 100 μL of a compound’s solution with 1% DMSO, and 25 μL of AChE (0.1 U/mL) in 50 mM Tris–HCl buffer pH 8 were incubated for 15 min. Subsequently, 75 μL of acetylthiocholine iodide (AChI) (0.023 mg/mL) and 475 μL of 3 mM 5,5′-dithiobis(2-nitrobenzoic acid) (DTNB) in Tris–HCl buffer (pH 8) containing 0.05 M NaCl and 0.021 M MgCl2 were added to initiate the reaction. The initial rate of the enzymatic reaction was quantified by measuring the absorbance at 405 nm for 5 min (V[compound]). A control reaction was carried out using 1% DMSO water solution, instead of the compound’s solution, and this initial rate was considered 100% of the enzymatic activity, Vcontrol. The percentage of AChE inhibition (I) for various concentrations of the different compounds was determined as the ratio of V[compound] and Vcontrol. For each compound, both the AChEIC50 value (the concentration that inhibits 50% of the AChE activity) and the percentage of inhibition at the compound concentration of 50 µM (Inhibition50µM) were calculated by plotting I for each compound concentration. All the assays were carried out in triplicate.

A short description of series [4]: Cyclic voltammetry in acetonitrile. In kind it is physicochemical. The note with it: for Ipa/Ipc: Tables S1/S2, acetonitrile; for Epa. Epc: Tables S1/S2, peak separation; for ∆E (I) / E1/2 (I) / Epc (I): first reduction wave. An excerpt: To obtain an insight into the electronic character of the studied naphthoquinone derivatives and to find out possible relationships with their potential biological activities, the electrochemical behavior of 1,4-NQ (1) and 1,2-NQ (2) and their 2-substituted-1,4-NQ (3a–f) and 4-substituted-1,2-NQ derivatives (4a–h), respectively, were studied by cyclic voltammetry (CV) in aprotic medium (CH3CN + TBAP, 0.1 mol.L^−^1) and the electrochemical selected data are listed in Table 3 (for complete electrochemical data, see Tables S1 and S2, supplementary material).
The redox potentials were measured by cyclic voltammetry using an EG&G Princeton Applied Research (PAR) Model 273A potentiostat/galvanostat monitored by a personal computer with the Electrochemistry PowerSuite v2.51 software from PAR. Cyclic voltammograms were obtained in 1 mM of compounds in anhydrous acetonitrile solutions containing tetrabutylammonium hexafluorophosphate (TBAPF6) 0.1 M as supporting electrolyte. A three-electrode configuration cell was used with a homemade platinum disk working electrode (1.0 mm diameter) probed by a Luggin capillary connected to a silver-wire pseudo-reference electrode and a platinum wire auxiliary electrode. The potentials were scanned from −1.8 to 1.8 V at a scan rate of 100 mV·s^−^1. All measurements were done at room temperature and the solutions were deaerated with nitrogen atmosphere before use. All the potentials reported were measured against the ferrocene/ferrocenium redox couple as internal standard and corrected to SCE (using the ferrocenium/ferrocene redox couple E1/2 = 0.40 V vs. SCE).

Another series relates to AChE. The note with it: read-out: AChEIC50 of reference AChE inhibitors; cited from earlier work.
[5] abbreviates: read-out: Inhibition50µM (AChE inhibition).
Setting [6] is: read-out: Inhibiton50µM (μM±SD).
The mark [7] stands for this setting: acetonitrile, scan rate 0.100 V·s−1.
[8] abbreviates: acetonitrile, vs SCE, scan rate 0.100 V·s−1.
The mark [9] stands for this setting: second reduction wave, acetonitrile, vs SCE, scan rate 0.100 V·s−1.

Sequence of acetylcholinesterase (AChE) (P22303 32-614): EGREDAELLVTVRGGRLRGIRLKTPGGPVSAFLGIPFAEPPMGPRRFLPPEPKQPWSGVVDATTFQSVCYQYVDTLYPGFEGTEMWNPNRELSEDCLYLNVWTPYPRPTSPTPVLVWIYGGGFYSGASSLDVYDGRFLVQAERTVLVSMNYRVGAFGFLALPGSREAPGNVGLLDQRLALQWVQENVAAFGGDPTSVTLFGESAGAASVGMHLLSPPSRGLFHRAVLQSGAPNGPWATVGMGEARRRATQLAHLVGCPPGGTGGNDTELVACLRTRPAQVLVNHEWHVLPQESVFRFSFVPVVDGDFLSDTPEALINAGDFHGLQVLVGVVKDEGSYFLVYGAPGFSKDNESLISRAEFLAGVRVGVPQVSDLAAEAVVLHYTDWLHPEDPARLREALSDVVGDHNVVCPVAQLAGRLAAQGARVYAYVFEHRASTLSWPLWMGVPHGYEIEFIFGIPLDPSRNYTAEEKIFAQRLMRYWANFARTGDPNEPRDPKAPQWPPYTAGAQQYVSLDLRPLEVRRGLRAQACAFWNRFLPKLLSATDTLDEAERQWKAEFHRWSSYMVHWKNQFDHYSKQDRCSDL

As to `O=C1C=CC(=O)c2ccccc21` [Compound 1, 1,4-naphthoquinone, reference compound], the EC50 at 24 h in series [1] worked out at 32.2 ± 1.4 µM. Also, in series [2] (listed as 1,4-NQ), the EC50 came to 32 µM. Moreover, the inhibition at 50 µM in series [3] (setting [5]) was 51%. Moreover, the inhibition at 50 µM in series [3] (setting [6]) worked out at 50.7 ± 2.3%. Also, the Ipa/Ipc in series [4] (100 mV.s-1) stood at 0.9. In series [4] (Tables S1/S2, every redox process listed, acetonitrile, vs SCE, 100 mV.s-1), the E1/2 is reported as -0.66 V. Besides, in series [4] (acetonitrile, 100 mV.s-1), the “Epa. Epc” value is 80 mV. The “∆E (I)” value in series [4] (setting [7]) amounted to 80 mV. In series [4] (setting [8]), the “E1/2 (I)” value is on record as −0.66 V and the “Epc (I)” value is −0.70 V. The “Epc (II)” value in series [4] (setting [9]) is reported as −1.36 V.
`COc1ccc2c3c1O[C@H]1C[C@@H](O)C=C[C@@]31CCN(C)C2` [galantamine]: the IC50 in the series on AChE was […].
For the compound `O=C1C=Cc2ccccc2C1=O` [Compound 2, 1,2-naphthoquinone], the EC50 at 24 h in series [1] was 25.6 ± 1.1 µM. Besides, in series [2] (listed as 1,2-NQ), the EC50 worked out at 26 µM. In series [3] (setting [5]), the inhibition at 50 µM came to 35%. Besides, the inhibition at 50 µM in series [3] (setting [6]) came out at 34.9 ± 5.2%. This compound gave an Ipa/Ipc in series [4] (100 mV.s-1) of 1.0. Moreover, in series [4] (acetonitrile, 100 mV.s-1), the “Epa. Epc” value is 110 mV and 140 mV. The “∆E (I)” value in series [4] (setting [7]) was determined as 110 mV. In series [4] (setting [8]), the “E1/2 (I)” value is −0.50 V and the “Epc (I)” value was −0.55 V. Moreover, the “∆E (II)” value in series [4] (second reduction wave, acetonitrile, scan rate 0.100 V·s−1) is given as 140 mV. Besides, in series [4] (setting [9]), the “E1/2 (II)” value was −0.91 V and the “Epc (II)” value is recorded as −0.98 V.
Consider `CCN(C)C(=O)Oc1cccc([C@H](C)N(C)C)c1` [rivastigmine], for which the IC50 in the series with AChE is […].
